Assay results from ChEMBL document CHEMBL1201862, “PubChem BioAssay data set” (2004).
Activity calls are given as the source filed them.

Assays:
[1] = cytotoxicity in HPDE-C7 cells, cell-based, fluorescence, HTS (AID 430); format: functional; details: Homo sapiens
[2] = microbe, parasite or virus in culture; format: functional; details: Mycobacterium tuberculosis
[3] = cytotoxicity in KRAS-transformed pancreatic duct cells, primary screen, cell-based, fluorescence, HTS (AID 431); format: functional; details: Homo sapiens;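 further: cell line used: HPDE-C7K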
[4] = system: HEK293; test: inhibitors of LMP1-driven NF-kB reporter, dose response, cell-based, HEK293, luciferase, cherry-pick (AID 588343); format: functional; details: Homo sapiens
[5] = Shn3 3'UTR reporter inhibitors, dose response, cell-based, Clone20 osteoblasts, firefly luciferase, cherry-picked (AID 624132); format: functional;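 further: firefly luciferase luminescence from reporter carrying the Shn3 3'UTR in osteoblasts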
[6] = HepG2 cell cytotoxicity, dose response, cytotoxicity control for Shn3 inhibitor project, CellTiter-Glo, cherry-picked (AID 624134); format: functional, cell-based
[7] = control 3'UTR Renilla luciferase suppression, dose response, counter-screen for Shn3 inhibitor project, cell-based, Clone20-Shn3RL, cherry-picked (AID 624133); format: functional
[8] = inhibitors of HIV Env-driven cell fusion, dose response, cherry-pick (AID 652057); format: functional, cell-based
[9] = CEM21 lymphoblast cell cytotoxicity, dose response, cytotoxicity control for viral fusion inhibitor project, CellTiter-Glo luminescence, cherry-picked (AID 652042); format: functional, cell-based;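 further: potency for signal decrease meaning cytotoxicity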
[10] = ZM109 Env clade C HIV-1 fusion inhibitors, dose response, HeLa effector, CEM target cells, luciferase, cherry-pick (AID 652058); format: functional, cell-based
[11] = inhibitors of clade B AD8 Env fusion, dose response, cell-based, cherry-pick (AID 652062); format: functional;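 further: luciferase signal from cell-cell fusion driven by HIV-1 clade B AD8 Env; potency is for inhibitors of fusion seen as a drop in luminescence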
[12] = cells; format: functional
[13] = biological target: G-protein coupled receptor 55 (Homo sapiens, UniProt Q9Y2T6); test: GPR55 agonists via beta-arrestin recruitment, primary screen, imaging, U2OS cells, beta-arrestin-GFP redistribution (AID 1961); format: functional
Chain of G-protein coupled receptor 55 (Q9Y2T6 whole entry): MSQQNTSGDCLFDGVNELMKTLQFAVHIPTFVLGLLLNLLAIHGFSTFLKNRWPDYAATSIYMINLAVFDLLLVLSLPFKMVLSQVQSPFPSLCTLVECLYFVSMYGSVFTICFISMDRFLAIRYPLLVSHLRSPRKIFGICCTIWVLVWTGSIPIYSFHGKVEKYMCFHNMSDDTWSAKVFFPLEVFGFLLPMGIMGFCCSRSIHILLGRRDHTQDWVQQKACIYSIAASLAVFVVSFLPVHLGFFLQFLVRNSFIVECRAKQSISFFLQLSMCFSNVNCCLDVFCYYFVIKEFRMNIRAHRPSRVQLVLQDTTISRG

[14] = biological target: Cytochrome P450 3A4 (Homo sapiens, UniProt P08684); details: Potency;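 further: confirmatory qHTS run detecting inhibitors and substrates of CYP3A4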
Chain of Cytochrome P450 3A4 (P08684 whole entry): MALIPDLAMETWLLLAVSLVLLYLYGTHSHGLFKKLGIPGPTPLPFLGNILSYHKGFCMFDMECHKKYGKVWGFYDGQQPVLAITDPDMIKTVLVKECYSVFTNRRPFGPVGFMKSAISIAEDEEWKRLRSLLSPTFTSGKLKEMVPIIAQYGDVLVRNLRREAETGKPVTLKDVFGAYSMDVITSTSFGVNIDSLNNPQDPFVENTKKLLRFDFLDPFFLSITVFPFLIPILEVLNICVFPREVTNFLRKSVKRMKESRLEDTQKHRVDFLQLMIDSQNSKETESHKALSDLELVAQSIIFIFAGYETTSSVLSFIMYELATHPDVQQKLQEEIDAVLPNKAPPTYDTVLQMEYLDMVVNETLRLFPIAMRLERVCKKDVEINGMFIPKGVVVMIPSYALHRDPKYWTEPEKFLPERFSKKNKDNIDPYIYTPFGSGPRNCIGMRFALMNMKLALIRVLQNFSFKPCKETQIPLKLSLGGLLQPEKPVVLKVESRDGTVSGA

[15] = biological target: Eukaryotic translation initiation factor 4E (Mus musculus, UniProt P63073); test: eIF4E–eIF4G protein interaction inhibitors, dose response, biochemical, TR-FRET (AID 855); format: functional;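 further: potency for disrupting eIF4E binding to eIF4GI seen as loss of FRET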
Chain of Eukaryotic translation initiation factor 4E (P63073 whole entry): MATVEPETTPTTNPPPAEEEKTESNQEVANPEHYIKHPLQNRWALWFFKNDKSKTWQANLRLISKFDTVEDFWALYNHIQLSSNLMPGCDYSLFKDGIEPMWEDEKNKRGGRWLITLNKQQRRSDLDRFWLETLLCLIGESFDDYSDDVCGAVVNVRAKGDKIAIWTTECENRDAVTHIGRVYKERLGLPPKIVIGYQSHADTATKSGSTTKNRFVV

[16] = biological target: T1, Leucine aminopeptidase (Plasmodium falciparum 3D7, UniProt Q8IL11); test: P. falciparum M17LAP inhibitors, primary screen, biochemical, fluorogenic H-Leu-NHMec substrate, 1536-well (AID 1619); format: functional
T1 sequence (Q8IL11 whole entry): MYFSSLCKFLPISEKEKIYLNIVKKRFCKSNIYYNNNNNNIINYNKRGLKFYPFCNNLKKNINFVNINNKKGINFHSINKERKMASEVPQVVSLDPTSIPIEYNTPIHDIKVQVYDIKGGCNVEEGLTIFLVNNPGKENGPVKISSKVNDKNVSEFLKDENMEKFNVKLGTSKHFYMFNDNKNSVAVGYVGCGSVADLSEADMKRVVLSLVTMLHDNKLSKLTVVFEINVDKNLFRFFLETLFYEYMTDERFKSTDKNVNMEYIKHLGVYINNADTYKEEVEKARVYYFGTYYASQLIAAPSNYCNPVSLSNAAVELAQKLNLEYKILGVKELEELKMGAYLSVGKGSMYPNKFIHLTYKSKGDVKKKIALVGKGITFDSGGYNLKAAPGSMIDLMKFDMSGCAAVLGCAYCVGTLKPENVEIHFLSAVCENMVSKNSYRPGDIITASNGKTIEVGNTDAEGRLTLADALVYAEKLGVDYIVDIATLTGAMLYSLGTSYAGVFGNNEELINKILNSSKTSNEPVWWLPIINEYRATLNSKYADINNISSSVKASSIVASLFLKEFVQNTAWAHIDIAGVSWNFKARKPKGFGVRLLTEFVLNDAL

[17] = biological target: Induced myeloid leukemia cell differentiation protein Mcl-1 (Homo sapiens, UniProt Q07820); format: functional
Chain of Induced myeloid leukemia cell differentiation protein Mcl-1 (Q07820 whole entry): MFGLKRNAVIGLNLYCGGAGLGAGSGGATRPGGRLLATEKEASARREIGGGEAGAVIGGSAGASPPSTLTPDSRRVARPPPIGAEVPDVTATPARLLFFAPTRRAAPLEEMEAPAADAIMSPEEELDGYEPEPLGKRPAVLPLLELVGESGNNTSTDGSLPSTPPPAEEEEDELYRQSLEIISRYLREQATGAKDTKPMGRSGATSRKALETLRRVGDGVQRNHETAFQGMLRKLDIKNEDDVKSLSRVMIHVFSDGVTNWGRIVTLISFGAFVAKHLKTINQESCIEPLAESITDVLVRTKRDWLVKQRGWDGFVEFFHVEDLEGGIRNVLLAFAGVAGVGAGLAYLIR

[18] = biological target: DNA dC->dU-editing enzyme APOBEC-3A (Homo sapiens, UniProt P31941); test: APOBEC3A DNA deaminase inhibitors, dose response, biochemical (AID 504722); format: functional
Chain of DNA dC->dU-editing enzyme APOBEC-3A (P31941 whole entry): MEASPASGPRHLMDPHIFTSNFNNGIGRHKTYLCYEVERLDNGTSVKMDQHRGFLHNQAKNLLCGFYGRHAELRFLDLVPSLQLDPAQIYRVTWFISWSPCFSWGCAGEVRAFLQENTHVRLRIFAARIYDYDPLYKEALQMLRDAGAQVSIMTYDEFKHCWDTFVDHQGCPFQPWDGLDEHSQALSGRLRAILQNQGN

[19] = biological target: Glucose-6-phosphate 1-dehydrogenase (Homo sapiens, UniProt P11413); test: human G6PD enzyme inhibitors, dose response, selectivity assay for P. falciparum G6PD inhibitor project, biochemical, fluorescence (AID 504792); format: functional
Chain of Glucose-6-phosphate 1-dehydrogenase (P11413 whole entry): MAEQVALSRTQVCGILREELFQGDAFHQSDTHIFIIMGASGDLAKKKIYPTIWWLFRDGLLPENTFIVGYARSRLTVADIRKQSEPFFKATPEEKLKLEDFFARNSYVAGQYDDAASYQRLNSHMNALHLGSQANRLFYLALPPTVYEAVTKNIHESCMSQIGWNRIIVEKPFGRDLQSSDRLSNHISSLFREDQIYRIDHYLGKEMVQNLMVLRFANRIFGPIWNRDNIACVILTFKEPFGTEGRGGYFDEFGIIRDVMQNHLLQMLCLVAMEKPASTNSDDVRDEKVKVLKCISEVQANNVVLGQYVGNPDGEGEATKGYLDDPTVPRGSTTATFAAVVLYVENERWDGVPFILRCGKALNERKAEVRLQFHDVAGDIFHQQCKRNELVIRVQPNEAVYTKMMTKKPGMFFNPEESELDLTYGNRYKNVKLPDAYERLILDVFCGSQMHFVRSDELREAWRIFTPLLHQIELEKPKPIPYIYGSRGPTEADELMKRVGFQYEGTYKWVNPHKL

[20] = biological target: DNA dC->dU-editing enzyme APOBEC-3G (Homo sapiens, UniProt Q9HC16); test: Dose Response confirmation of small molecule APOBEC3G DNA Deaminase Inhibitors via a fluorescence-based single-stranded DNA deaminase assay. [Related pubchem assays (depositor defined):AID493012, AID493028]; format: functional
Chain of DNA dC->dU-editing enzyme APOBEC-3G (Q9HC16 whole entry): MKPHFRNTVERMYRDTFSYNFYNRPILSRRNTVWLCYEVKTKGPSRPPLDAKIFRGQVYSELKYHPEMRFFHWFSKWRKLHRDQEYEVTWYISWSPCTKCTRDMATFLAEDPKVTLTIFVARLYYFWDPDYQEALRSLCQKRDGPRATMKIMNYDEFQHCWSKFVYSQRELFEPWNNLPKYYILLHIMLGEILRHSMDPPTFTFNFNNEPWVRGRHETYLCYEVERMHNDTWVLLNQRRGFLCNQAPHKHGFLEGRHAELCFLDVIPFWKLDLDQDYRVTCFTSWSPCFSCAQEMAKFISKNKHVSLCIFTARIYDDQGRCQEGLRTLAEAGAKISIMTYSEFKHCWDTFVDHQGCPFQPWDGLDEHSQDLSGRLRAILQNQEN

[21] = growth suppression of PTEN-null colon cells, dose response, cell-based, HCT116 PTEN knockout (AID 1047); format: functional;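 further: HCT116 colon tumor cells with PTEN knocked out; cells exposed to compound for 60 hours before readout; potency for loss of cell viability measured by luminescence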
[22] = growth suppression of beta-catenin-knockout colon cells, dose response, cell-based, HCT116, human colon tumor (AID 1045); format: functional;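 further: HCT116 colon tumor cells with beta catenin knocked out; cells exposed to compound for 60 hours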

In the case of Cc1ccc2[nH]c3c(N4CCN(Cc5ccccc5)CC4)ncnc3c2c1, the EC50 [1] is reported as 14.1 µM (active), the CC50 [2] is reported as 35.2 µM (active) and the EC50 [3] is reported as 16.8 µM (active). For the same compound, the AC50 [4] was 11.8 µM (active), the AC50 [5] was 4.18 µM (active) and the AC50 [6] was 30.8 µM (active). The AC50 [7] was 20.3 µM (active), the AC50 [8] was 8.98 µM (active) and the AC50 [9] was 26.2 µM (active). The AC50 [10] was 0.671 µM (active) and the AC50 [11] was 19.5 µM (active).

With Cc1cccc(OC(=O)c2ccc3nccnc3c2)c1 the IC50 [12] was 9.63 µM (active).

With COc1ccc(SC[C@H](CC(C)C)N2CCN(CCc3ccccc3)CCC2=O)cc1 the EC50 [13] was 10.8 µM (inactive).

In the case of CCN1CCCC1Cn1c(-c2ccccc2)nc2c(N3CCOCC3)nc(C)nc21 (stereo not drawn), the AC50 [14] is reported as 12.6 µM (inconclusive).

In the case of CCOC(=O)COc1ccc(C(=O)c2ccccc2)c(O)c1, the IC50 [12] is reported as 3.02 µM (active).

In the case of CC(=O)Oc1ccc2c(c1)CCC1C2CC[C@]2(C)C(OC(C)=O)CCC12 (stereo partly drawn), the AC50 [14] is reported as 31.6 µM (inconclusive).

In the case of COC(=O)[C@@H]1C[C@@]2(O)[C@H](O)[C@H](O)[C@H](O)C[C@H]2N1Cc1ccc(C(F)(F)F)cc1, the AC50 [14] is reported as 20 µM (inconclusive).

For CCOC(=O)/C(C#N)=C/c1ccc(OC(=O)c2ccccn2)cc1, the IC50 [15] was > 64 µM (inactive).

In the case of NC(=O)c1c(Nc2nc3c(F)cccc3s2)sc2c1CCCC2, the IC50 [16] is reported as 81.8 µM (active) and the IC50 [17] is reported as 2.76 µM (active).

In the case of Cc1ccc(NC(=O)Cn2sc3nc(C)cc(C)c3c2=O)c(Cl)c1, the IC50 [18] is reported as > 100 µM (inactive), the IC50 [19] is reported as 30.5 µM (inactive) and the IC50 [20] is reported as 4.88 µM (active).

For O=C(CC(Nc1cccc(Cl)c1Cl)C(=O)O)c1ccccc1 (stereo not drawn), the IC50 [16] was 14.2 µM (active).

In the case of O=C(Oc1ccccc1)c1cccc2cccnc12, the EC50 [1] is reported as 5.75 µM (active), the EC50 [3] is reported as > 20 µM (not active) and the EC50 [21] is reported as 11.3 µM (active). The EC50 [22] was 11.5 µM (active).
